Source: paper PMC6651611 (Slas Discovery, 2019)

Legend:
CYP130A1 (CYP130A1-BM3R) = CYP130A1 (CYP130A1-BM3R) (Mycobacterium tuberculosis, UniProt P9WPN5); assay: biochemical
CYP124A1 = CYP124A1 (Mycobacterium tuberculosis, UniProt P9WPP3); assay type: biochemical
CYP125A1 = CYP125A1 (Mycobacterium tuberculosis, UniProt P9WPP1); assay type: biochemical
[1] = tested on: O=C(O)[C@H]1CSC(c2nc3ccc(OCc4ccccc4)cc3s2)=N1; assay: purified protein
[2] = tested on: COc1ccc2nc(C3=N[C@@H](C(=O)OCCO)CS3)sc2c1; assay: purified protein

Compound: CC(=O)N1CCN(c2ccc(OC[C@H]3CO[C@](Cn4ccnc4)(c4ccc(Cl)cc4Cl)O3)cc2)CC1 (racemic) [ketoconazole]
- IC50 (CYP130A1 (CYP130A1-BM3R)): 100 ± 20 nM

Compound: COc1ccc2nc(C3=N[C@@H](C(=O)OCCO)CS3)sc2c1 [Luciferin-ME EGE]
- luminescence turnover assay with purified enzyme (S/B 7.3) (CYP124A1): Luciferin-ME EGE was the only pro-luciferin substrate metabolized by these three cholesterol-metabolizing Mtb CYPs
- luminescence turnover assay with purified enzyme (S/B 7.8) (CYP125A1): Luciferin-ME EGE was the only pro-luciferin substrate metabolized by these three cholesterol-metabolizing Mtb CYPs

Compound: Clc1ccc(COC(Cn2ccnc2)c2ccc(Cl)cc2Cl)cc1 (stereo not shown) [econazole]
- IC50 (CYP130A1 (CYP130A1-BM3R)): 50 ± 10 nM

Compound: Clc1ccc(COC(Cn2ccnc2)c2ccc(Cl)cc2Cl)c(Cl)c1 (stereo not shown) [miconazole]
- IC50 (CYP130A1 (CYP130A1-BM3R)): 17 ± 3 nM

Compound: CYP130A1 (CYP130A1-BM3R) (Mycobacterium tuberculosis H37Rv)
- Km [1]: 37 ± 2.4 µM
- kcat [1]: 0.000667 ± 1.33e-05 s⁻¹
- kcat/Km [1]: 18.3 M⁻¹ s⁻¹

Compound: CYP142A1 (Mycobacterium tuberculosis H37Rv)
- Km [2]: 270 ± 22 µM
- kcat/Km [2]: 0.00333 M⁻¹ s⁻¹
